The values that follow come from US7354941B2, “Nicotinamide benzofused-heterocyclyl derivatives useful as selective inhibitors of PDE4 isozymes” (Pfizer Products Inc., priority 2000, dated 2008).

The test system of one series is PDE4. To be noted: cited from earlier work.
A further series has as its system guinea-pig trachea. To be noted: cited from earlier work.
Another series has as its system allergic rhinitis. To be noted: in vivo; cited from earlier work.
For series [1] the following is noted: in vivo; cited from earlier work.
In another series the test system is atopic dermatitis. To be noted: topical, cited from earlier work.
Series [2] relates to high-affinity rolipram binding site (Sr). To be noted: cited from earlier work.
The next series has as its system rhinorrhea. The conditions noted are these: antigen-challenged pig; cited from earlier work.
Series [3] concerns histamine-induced and antigen-induced bronchoconstriction. The conditions noted are these: guinea-pig; cited from earlier work.
Series [4] relates to antigen-induced bronchoconstriction. The conditions noted are these: guinea-pig; cited from earlier work.
A further series concerns colitis. To be noted: rat; cited from earlier work.
Series [5] relates to rheumatoid arthritis patients. To be noted: 35 patients, t.i.d., placebo-controlled; cited from earlier work.
Series [6] has as its system streptococcal cell wall (SCW)-induced arthritis. The conditions noted are these: in vivo; cited from earlier work.
The next series deals with TNF-α mRNA expression. To be noted: collagen II treated mice; cited from earlier work.
Series [7] has as its system antigen-induced lung eosinophilia. The conditions noted are these: guinea-pig; cited from earlier work.
Series [8] concerns antigen-induced bronchospasm. The conditions noted are these: rat; cited from earlier work.
In a further series the test system is psoriatic lesions. To be noted: two double-blind studies versus vehicle; cited from earlier work.
The test system of series [9] is human peripheral blood mononuclear cells (HPBM). The conditions noted are these: normal patients and subjects with atopic dermatitis; cited from earlier work.
For the next series, the system named is epidermal basal cells. To be noted: primary culture; cited from earlier work.
For series [10], the system named is endotoxin-induced acute renal failure. To be noted: cited from earlier work.
The subject of series [11] is psoriatic epidermal slices. To be noted: cited from earlier work.
Another series relates to patients. The conditions noted are these: orally 5, 10, and 15 mg b.i.d., week 2; cited from earlier work.
In the next series the test system is patients with COPD. To be noted: cited from earlier work.
Series [12] relates to seratonin-induced bronchoconstriction. The conditions noted are these: dog; cited from earlier work.
The subject of series [13] is Patients with severe COPD. The conditions noted are these: cited from earlier work; for mean pulmonary artery pressure: oral administration, severe COPD.
Series [14] deals with isolated pulmonary artery rings. The conditions noted are these: rings from normal rats and rats with hypoxia-induced pulmonary hypertension; cited from earlier work.
For series [15], the system named is lipopolysaccharide-induced bowel erythrocyte extravasation. To be noted: pretreatment i.p. 3×, rats; cited from earlier work.
The subject of series [16] is patients suffering from septic shock. The conditions noted are these: 1 mg/kg/hr, after 24 hours; cited from earlier work.

With `O=C(NCc1ccc(C(O)C(F)(F)F)cc1)c1cccnc1Oc1ccc2nonc2c1` (racemic) [Example 5, (±)-2-[Benzo[2,1,3]oxadiazol-5-yloxy]-N-[4-[2,2,2-trifluoro-1-hydroxy-ethyl]-benzyl]-nicotinamide], the melting point was 164 to 166 °C.
Same read-out and setting: as for `CC(O)c1ccc(CNC(=O)c2cccnc2Oc2ccc3nonc3c2)s1` (racemic) [Example 6, (±)-2-[Benzo[2,1,3]oxadiazol-5-yloxy]-N-[5-[1-hydroxy-ethyl]-thiophen-2-ylmethyl]-nicotinamide], the figure is 81 to 83 °C; as for `CC(NC(=O)c1cccnc1Oc1ccc2nonc2c1)c1ccc(C(C)(C)O)cc1F` (racemic) [Example 8, (±)-2-(Benzo[2,1,3]oxadiazol-5-yloxy)-N-{1-[2-fluoro-4-(1-hydroxy-1-methyl-ethyl)-phenyl]-ethyl}-nicotinamide], 128 to 130 °C; as for `CC(NC(=O)c1cccnc1Oc1ccc2nonc2c1)c1ccc(C(C)(C)O)cc1` (racemic) [Example 17, (±)-2-(Benzo[2,1,3]oxadiazol-5-yloxy)-N-{1-[4-(1-hydroxy-1-methyl-ethyl)-phenyl]ethyl}-nicotinamide], 116 to 117 °C.
With `COc1ccc(-c2nc3cnccc3o2)c2c1OC1(CCCC1)C2` [(0.0.48)], in the series with PDE4, the IC50 was 2.5 nM.
For `O=S1(=O)CCN(c2nc(NC3CC3)nc(C3CC3)n2)C1` [(0.0.56)], the “relaxant activity, guinea-pig trachea model” value in the series on guinea-pig trachea is reported as “potent relaxant agents”. Moreover, the IC50 in the series with PDE4 was 150 nM.
Take `CC1CC1c1nc(NC2CC2)nc(N2CCOCC2)n1` (stereo not shown) [(0.0.57)]: the “relaxant activity, guinea-pig trachea model” value in the series on guinea-pig trachea was “potent relaxant agents”. The IC50 with PDE4 was 140 nM.
`O=C(Nc1c(Cl)cncc1Cl)C(=O)c1cn(Cc2ccc(F)cc2)c2ccc(O)cc12` [AWD-12,281]: the “activity in a rat model of allergic rhinitis” value in the series with allergic rhinitis is “active”.
Regarding `Nc1nc2c([nH]1)c(=O)n(CC1CC1)c(=O)n2CC1CC1` [BRL-61,063], the “adverse events of nausea and vomiting” value in [1] was “adverse events of nausea and vomiting”.
`COc1ccc(C2CNC(=O)NC2)cc1O[C@H]1C[C@@H]2CC[C@H]1C2` [CP-80,633]: the inflammatory parameters result in the series on atopic dermatitis (bilaterally over eight days, twenty patients) is on record as “effectively inhibit all of the inflammatory parameters tested”. Besides, the adverse effects result in the series with atopic dermatitis (eight days) was “no adverse effects”. Besides, in series [2], the “affinity at the Sr” value is “high affinity at the Sr”. Further, in series [1], the emesis result was “elicit emesis”.
For the compound `CC(C)(O)c1ccc(CNC(=O)c2cccnc2Oc2ccc3nonc3c2)c(F)c1` [Example 2, 2-[Benzo[2,1,3]oxadiazol-5-yloxy]-N-[2-fluoro-4-[1-hydroxy-1-methyl-ethyl]-benzyl]-nicotinamide], the melting point lay within 160 to 161 °C.
Still for that read-out and setting: as for `CC(=O)c1ccc(CNC(=O)c2cccnc2Oc2ccc3nonc3c2)cc1` [Example 7, N-[4-Acetyl-benzyl]-2-[benzo[2,1,3]oxadiazol-5-yloxy]-nicotinamide], the figure is 154 to 156 °C; as for `CC(C)(O)c1ccc(CNC(=O)c2cccnc2Oc2ccc3nonc3c2)c(Cl)c1` [Example 9, 2-(Benzo[2,1,3]oxadiazol-5-yloxy)-N-[2-chloro-4-(1-hydroxy-1-methyl-ethyl)-benzyl]-nicotinamide], 171 to 173 °C.
In the case of `CCCn1c(=O)c2c(C)nc(CC)n2c2nc(OC)ccc21` [Example D-22888], the “anti-allergic effect and rhinorrhea” value in the series on rhinorrhea was “exhibit a strong anti-allergic affect and to inhibit rhinorrhea”.
As to `O=c1c2[nH]cnc2c2cccnc2n1-c1ccccc1` [KF17625], in series [3], the “inhibition of histamine- and antigen-induced bronchoconstriction, PAF- and antigen-induced eosinophilia, AHR, bronchospasm, anaphylactic bronchoconstriction” value is reported as “activity”.
`O=c1c2c(ncn2Cc2cccnc2)c2cccnc2n1-c1ccccc1` [KF19514]: the “inhibition of histamine- and antigen-induced bronchoconstriction, PAF- and antigen-induced eosinophilia, AHR, bronchospasm, anaphylactic bronchoconstriction” value in series [3] is recorded as “activity”.
For `CCCn1c(=O)c2[nH]cnc2n(-c2ccc(Cl)cc2)c1=O` [LAS-31025], in series [4], the “inhibition of antigen-induced bronchoconstriction” value was “active”. In the series on colitis, the “effects in dextran sulfate induced colitis model” value was “beneficial effects comparable to prednisolone” and the “effects in models of colitis” value is on record as “beneficial effects”.
With `COc1ccc(C(=O)Nc2c(Cl)cncc2Cl)cc1OC1CCCC1` [RP-73,401], the clinical improvement result in series [5] is “positive trend towards clinical improvement”. Moreover, the “disease: joint destruction, synovitis, and fibrosis” value in series [6] is on record as “significant amelioration of disease”. In addition, the “affinity at the Sr” value in [2] is “high affinity at the Sr”. The emesis entry in [1] is recorded as “elicit emesis”. The “TNF-α mRNA expression at the pannus/cartilage interface of paw joints” value in the series with TNF-α mRNA expression was “decrease TNF-α mRNA expression”. The “inhibition of antigen-induced lung, BAL and airway eosinophilia, EPO, PAF- and ozone-induced AHR, IL-5 induced pleural eosinophila” value in series [7] was “active”.
`COc1ccc(CNc2c(C)noc2C)cc1OC1CCCC1` [RPR-132294]: in series [8], the “inhibition of antigen-induced bronchospasm” value is on record as “activity in the inhibition of antigen-induced bronchospasm”.
Regarding `O=c1c2cccnc2n(-c2cccc([N+](=O)[O-])c2)c(=O)n1Cc1ccncc1` [RS-23,544], the “affinity at the Sr” value in series [2] is “high affinity at the Sr”. Besides, the emesis entry in [1] is given as “elicit emesis”.
As for `COc1ccc(CC2CNC(=O)N2)cc1OC1CCCC1` (stereo not shown) [Ro 20-1724], the “psoriatic lesions and adverse effects” value in the series on psoriatic lesions was “improve psoriatic lesions without adverse systemic or cutaneous effects”. Also, the “inhibition of the proliferation of HPBM” value in series [9] is recorded as “concentration-related inhibition”. The cAMP concentrations entry in the series with epidermal basal cells was “three-fold increase”. Besides, the survival rates entry in series [10] (endotoxin-treated rats) was “improve survival rates”. Also, in series [10] (post-treatment at 10 μg/kg/min), the “renal vascular resistance, renal blood flow and glomerular filtration rate” value was “markedly attenuates endotoxin-induced increases in renal vascular resistance and decreases in renal blood flow and glomerular filtration rate”; the “urinary cAMP excretion” value is “significantly increases urinary cAMP excretion”. Also, the “increase in cAMP concentration” value in series [11] (keratomed psoriatic epidermis) was 1395%. Also, the “cAMP concentrations over controls” value in [11] (psoriatic epidermal slices and keratomed psoriatic epidermal slices) is “very marked elevation of cAMP concentrations over controls”.
Take `COc1ccc([C@]2(C#N)CC[C@@H](C(=O)O)CC2)cc1OC1CCCC1` [SB-207,499]: the “trough FEV1 from placebo” value with patients is “significant increases”. Besides, the “affinity at the Sr” value in [2] is “comparatively low affinity at the Sr”. In addition, in the series with patients with COPD (15 mg b.i.d., week 6), the “improvement in trough FEV1” value is reported as 11% and the “maximum mean difference in trough FEV1 compared with placebo” value is listed as 160 mL. In the series on patients with COPD (15 mg twice a day for six weeks), the “FEV1 and forced vital capacity (FVC)” value is “increrases in FEV1 and forced vital capacity (FVC)”. Further, the FEV1 entry in the series with patients with COPD (four week trial) is on record as “evidence of improved FEV1”.
Turning to `COc1ccc(/C(C)=N/OC(N)=O)cc1OC1CCCC1` [WAY-PDA-641], the “inhibition of seratonin-induced bronchoconstriction” value in [12] is “active”.
Regarding `CSc1ccc(C(=O)c2[nH]c(=O)[nH]c2C)cc1` [enoximone], the “mean pulmonary artery pressure” value in series [13] was “decreases in mean pulmonary artery pressure”. For the same compound, the airway resistance entry in series [13] (patients hospitalized with decompensated COPD) is on record as “reduce airway resistance”.
For `Cc1[nH]c(=O)c(C#N)cc1-c1ccncc1` [milrinone], the “relaxant activities of isoproterenol and forskolin” value in series [14] was “same effect has been observed”. Further, in series [13], the “mean pulmonary artery pressure” value is on record as “decreases in mean pulmonary artery pressure”.
Turning to `CC(=O)CCCCn1c(=O)c2c(ncn2C)n(C)c1=O` [pentoxifylline], the “lipopolysaccharide-induced bowel erythrocyte extravasation” value in series [15] is reported as “reduces lipopolysaccharide-induced bowel erythrocyte extravasation”. In series [16], the IL-6 levels result is “significantly increased” and the TNF-α levels result is on record as “significantly lowered”.

As usually defined, the melting point is the temperature of the solid-liquid transition. As usually defined, the IC50 is the midpoint of a concentration-inhibition curve.
